For 43 compounds, absorption maximum results are on record in the Deep4Chem optical property database.

This series in a line: solvent given as SMILES.

`CN(C)c1ccc(/C=C2\CC/C(=C\c3ccc(C#N)cc3)C2=O)cc1`: the absorption maximum is, setting by setting: (in C1CCOC1) 458 nm; (in CC#N) 456 nm; (in CC(C)=O) 454 nm; (in CC(C)O) 471 nm; (in CCCCO) 473 nm; (in CCCCOC(C)=O) 442 nm. Besides, the absorption maximum is, setting by setting: (in CCCO) 473 nm; (in CCO) 472 nm; (in CCOC(=O)c1ccccc1) 459 nm; (in CCOC(C)=O) 446 nm; (in CCOCC) 438 nm; (in CN(C)C=O) 464 nm. Besides, the absorption maximum runs as follows: (in CO) 473 nm; (in CS(C)=O) 471 nm; (in Cc1ccccc1) 455 nm; (in ClC(Cl)(Cl)Cl) 446 nm; (in ClC(Cl)Cl) 469 nm; (in ClCCl) 464 nm. The compound further showed an absorption maximum (in Clc1ccccc1Cl) of 465 nm; an absorption maximum (in O=C1CCCC1) of 460 nm; an absorption maximum (in S=C=S) of 464 nm; an absorption maximum (in c1ccccc1) of 457 nm; an absorption maximum (in c1ccncc1) of 467 nm.

Turning to `CCCCCCCCn1c(=O)c2cc3cc4cc5c(=O)n(CCCCCCCC)c(=O)c5cc4c(C#Cc4ccc(N(c5ccccc5)c5ccccc5)cc4)c3cc2c1=O`, the absorption maximum (in ClC(Cl)Cl) worked out at 515 nm.

With `CCOC(=O)C1=CN(c2ccccc2)C=C(C(=O)OCC)C1`, the absorption maximum reads like this: (in C1CCOC1) 376 nm; (in CO) 380 nm.

For the setting “in ClC(Cl)Cl”, `N#Cc1ccc(Oc2ccc3c4c(cccc24)C(=O)N(CCO)C3=O)cc1` came in with an absorption maximum of 352 nm.

`CC1(C)C(/C=C/C2=C(Oc3ccc(CCN=C=S)cc3Br)C(=C/C=C3/N(CCCS(=O)(=O)[O-])c4ccccc4C3(C)C)/CCC2)=[N+](CCCS(=O)(=O)[O-])c2ccccc21` showed an absorption maximum (in CO) of 768 nm.

As for `CN(C)c1ccc(/C=C/c2cccnn2)cc1`, the absorption maximum reads like this: (in C1CCOC1) 369 nm; (in CC#N) 369 nm; (in CS(C)=O) 380 nm; (in ClCCl) 365 nm.

Where the note is “in CC#N”, `CCOC(=O)c1c2c3c(ccc([N+](=O)[O-])c3c3cc4ccccc4cc13)N(C)C2=O` returned an absorption maximum of 394 nm.

Turning to `CCOC(=O)COc1ccc(C(c2c(C)[nH]c3ccccc23)c2c(C)[nH]c3ccccc23)cc1OC`, the absorption maximum was 290 nm (in CC#N), 291 nm (in CO) and 290 nm (in O).

For `CCCCNc1nn(-c2ccc(OC)cc2)nc1C#N`, the absorption maximum (in CC#N) is listed as 328 nm.

As for `Cn1cc(/C=C/C(=O)c2ccccc2)c2ccccc21`, the absorption maximum is reported as 381.03 nm (in CC#N) and 391.71 nm (in CO).

In turn, `CCOC(=O)/C(C)=C/C1=C(c2ccc(C)cc2)C2=Nc3c(-c4ccc(C)cc4)c(Br)c(-c4ccc(C)cc4)n3[B-](F)(F)[N+]2=C1c1ccc(C)cc1` came in with an absorption maximum (in ClC(Cl)Cl) of 661 nm.

With `O=C(NCc1cc(=O)oc2cc([O-])c(Br)cc12)c1cccnc1`, the absorption maximum (in O) stood at 370 nm.

`O=C(O)c1ccccc1Nc1ccccc1`: the absorption maximum (in C1CCOC1) stood at 353 nm; the absorption maximum (in C1COCCO1) came out at 353 nm; the absorption maximum (in CC#N) is 350 nm; the absorption maximum (in CCOC(C)=O) is 356 nm; the absorption maximum (in CN(C)C=O) came to 341 nm; the absorption maximum (in ClC(Cl)Cl) is on record as 357 nm.

As to `CCCN(CCC)CCC`, the absorption maximum (in CCCCCC) was found to be 199 nm.

Consider `CCCCCC(=O)c1c2c(c(C(=O)CCCCC)c3c1OC1(CCCC1)O3)OC1(CCCC1)O2`, for which the absorption maximum (in CC#N) was determined as 444 nm; the absorption maximum (in CCCCCC) was determined as 435 nm; the absorption maximum (in CCO) came to 452 nm; the absorption maximum (in CO) turned out to be 452 nm; the absorption maximum (in ClCCl) is on record as 449 nm.

For `CC1=CC(C)=[N+]2C1=C(C1=C(C)C3=C(C)c4c(C)cc(C)n4[B-](F)(F)[N+]3=C1C)c1c(C)cc(C)n1[B-]2(F)F`, for the setting “in ClC(Cl)Cl”, the absorption maximum is reported as 516 nm.

Turning to `Cc1ccccc1C1=C2C=c3c(oc4ccc(F)cc34)=[N+]2[B-](F)(F)n2c1cc1c3cc(F)ccc3oc12`, the absorption maximum (in C1CCCCC1) stood at 581.5 nm, the absorption maximum (in CCOC(C)=O) is 576.5 nm and the absorption maximum (in CO) is given as 574.5 nm.

Turning to `CCc1c(C)c2n(c1C)[B-](F)(F)[N+]1=C(C=C3C=Cc4ccccc43)C=CC1=C2C`, the absorption maximum (in C1CCCCC1) is 591 nm.

As for `CC(C)c1cc(N(C)C)c(C#N)c2c1-c1cccc3cccc-2c13`, where the note is “in O”, the absorption maximum came out at 430 nm.

On to `Cc1ccc(/C=C/c2ccccc2-[n+]2cc([O-])on2)cc1`, for which the absorption maximum is, setting by setting: (in C1CCCCC1) 310 nm; (in CC#N) 304 nm.

Consider `O=C1C=CC2=Cc3ccccc3B(O)N12`, for which the absorption maximum turned out to be 360 nm (in CC#N), 364 nm (in CO), 364 nm (in CS(C)=O) and 365 nm (in ClC(Cl)Cl).

The compound `N#Cc1nc2c3ccc(-c4ccc(N(c5ccccc5)c5ccccc5)cc4)cc3c3cc(-c4ccc(N(c5ccccc5)c5ccccc5)cc4)ccc3c2nc1C#N` gave an absorption maximum (in Cc1ccccc1) of 460 nm.

Turning to `O=C(O)CCCCCn1c2ccccc2c(=O)c2cc(Br)ccc21`, the absorption maximum (in O) is on record as 439 nm.

For the compound `CC(=O)Nc1ccc2c3cccc4cccc(c5cccc1c52)c43`, the absorption maximum was 447 nm (in C1COCCO1), 441 nm (in CC#N), 453 nm (in CCCCOCCCC) and 451 nm (in CCOC(C)=O).

In the case of `COc1ccc(C2=C(c3ccc(OC)cc3)C(C)(C)c3cc(OC)ccc32)cc1`, the absorption maximum (in C1CCCCC1) is 296 nm.

On to `CCCCC(CC)Cn1c2ccc(C(=C(C#N)C#N)c3ccccc3)cc2c2c(-c3ccc(Br)cc3)c3c(c(-c4ccc(Br)cc4)c21)c1cc(C(=C(C#N)C#N)c2ccccc2)ccc1n3CC(CC)CCCC` (stereo not drawn), for which the absorption maximum turned out to be 460 nm (in C1CCOC1); 462 nm (in CC#N); 464 nm (in CCO); 457 nm (in CCOC(C)=O); 467 nm (in CN(C)C=O); 471 nm (in ClCCl). Where the note is “in c1ccccc1”, this compound returned an absorption maximum of 458 nm.

Consider `CN(C)c1ccc(C#Cc2cc(C#Cc3ccc(N(C)C)cc3)c3ccc4c(C#Cc5ccc(N(C)C)cc5)cc(C#Cc5ccc(N(C)C)cc5)c5ccc2c3c54)cc1`, for which, for the setting “in ClCCl”, the absorption maximum amounted to 508 nm.

Take `Oc1ccc2ccccc2c1C1Nc2cccc3cccc(c23)N1`: the absorption maximum was 334 nm (in CC#N), 333 nm (in CO), 350 nm (in CS(C)=O) and 337 nm (in Cc1ccccc1).

`c1ccc(-c2ncc3ccccn23)cc1` registered an absorption maximum (in ClC(Cl)Cl) of 317 nm.

Where the note is “in C1CCOC1”, `c1ccc2c(c1)Cc1c-2sc2c1Cc1ccccc1-2` came in with an absorption maximum of 354 nm.

Take `N=C(N)N`: the absorption maximum (in O) stood at 265 nm.

In the case of `COc1ccc(-c2oc3cccc4c5c(-c6ccc(OC)c(OC)c6)c(=N)oc6cccc(c2c34)c65)cc1OC`, the absorption maximum (in ClC(Cl)Cl) was 410 nm.

The compound `F[B-]12Oc3ccccc3-c3c4[n+]5c(c([n+]31)-c1ccccc1O2)-c1ccccc1O[B-]5(F)Oc1ccccc1-4` gave an absorption maximum (in ClCCl) of 553 nm.

Under “in ClCCl”, `CC1=[N+]2C(=Cc3c4c(cn3[B-]2(F)F)-c2nc-4c(-c3ccccc3)c3ccc([nH]3)c(-c3ccccc3)c3nc(c(-c4ccccc4)c4ccc([nH]4)c2-c2ccccc2)C=C3)C(C)C1` (stereo not drawn) showed an absorption maximum of 640 nm.

Regarding `CCCCCCc1cc2c3c(c1)c(=C(c1ccccc1)c1ccccc1)c1cc(CCCCCC)cc4c1N3c1c(cc(CCCCCC)cc1c4=C(c1ccccc1)c1ccccc1)c2=C(c1ccccc1)c1ccccc1`, the absorption maximum (in ClCCl) was determined as 405 nm.

Take `Cc1cc(C)c(C2=C3C=CC=[N+]3[B-]3(c4ccc5ccc6cccc7ccc4c5c67)Oc4cc(O)cc5c6ccc(C)cc6c6cc2n3c6c45)c(C)c1` (stereo not drawn): the absorption maximum (in ClC(Cl)Cl) was determined as 647 nm.

The compound `C(=C\c1nc(-c2ccccc2)c2ccccn12)/c1nc(-c2ccccc2)c2ccccn12` showed an absorption maximum (in CC#N) of 438 nm.

Take `c1ccc2nc3cccc(-c4ccc(-n5c6ccccc6c6ccccc65)cc4)c3cc2c1`: the absorption maximum came to 359 nm (in C1CCOC1); 358 nm (in CC#N); 358 nm (in CC(C)=O); 359 nm (in CC(C)OC(C)C); 359 nm (in CCCCCC); 359 nm (in CCCCOCCCC). Further, the absorption maximum by setting is: (in CCOC(C)=O) 359 nm; (in CCOCC) 358 nm.

As to `COc1c2ccccc2c(OC)c2c1c1ccc(C(F)(F)F)cc1n2C`, the absorption maximum reads like this: (in C1CCCCC1) 416 nm; (in CC#N) 417 nm; (in CO) 416 nm; (in ClCCl) 419 nm.

Consider `CN(C)c1ccc(/C=C/c2ccc([N+](=O)[O-])c(O)c2)cc1`, for which the absorption maximum (in C1COCCO1) came out at 448 nm.

`C#CCOc1ccc(/C=C/C2=[N+]3C(=C(c4ccc(N(CC)CC)cc4)c4c(C)cc(C)n4[B-]3(F)F)C(C)=C2)cc1` gave an absorption maximum (in CO) of 568 nm.

The compound `c1ccc(N(c2ccccc2)c2ccc(-c3nc4c5ccccc5c5ccccc5c4n3-c3ccccc3)cc2)cc1` yielded an absorption maximum (in ClCCl) of 400 nm.

`CN(C)c1ccc(/C=C/c2cnc3ccccc3n2)cc1`: the absorption maximum stood at 424 nm (in C1CCOC1); 424 nm (in CC#N); 418 nm (in CCCCCCC); 435 nm (in CS(C)=O); 427 nm (in ClCCl).
